Assays:
Experiment in all cases: Histone peptide microarray
Format in all cases: binding, human
AIRE (PP) = tested on: AIRE (PP)
Method in brief: (§1)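 Purified PHD finger domains fused to GST are screened against 293 synthetic histone peptides bearing one or several post-translational modifications. The protein is used at 0.5 μM, and the signal from four replicate arrays is averaged, with standard deviation given.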

ING3 = tested on: ING3
Method in brief: as §1

PHF21A = tested on: PHF21A
Method in brief: as §1

CHD5 (PPCC) = tested on: CHD5 (PPCC)
Method in brief: as §1

ING1 = tested on: ING1
Method in brief: as §1

KDM5B (3) = tested on: KDM5B (3)
Method in brief: as §1

DIDO1 = tested on: DIDO1
Method in brief: as §1

TAF3 = tested on: TAF3
Method in brief: as §1

KDM5B (1) = tested on: KDM5B (1)
Method in brief: as §1

BPTF (PB) = tested on: BPTF (PB)
Method in brief: as §1

KDM5A (3) = tested on: KDM5A (3)
Method in brief: as §1

KDM4C (TTP) = tested on: KDM4C (TTP)
Method in brief: as §1

ING4 = tested on: ING4
Method in brief: as §1

PHF8 = tested on: PHF8
Method in brief: as §1

PHF13 = tested on: PHF13
Method in brief: as §1

MORC3 (CW) = tested on: MORC3 (CW)
Method in brief: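 Readout is array binding signal, reported as the mean and standard deviation over four replicates. Each purified GST-fused PHD domain was incubated at 0.5 μM with a library of 293 modified histone peptides.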

TRIM66 (PB) = tested on: TRIM66 (PB)
Method in brief: as §1

CHD5 (PCC) = tested on: CHD5 (PCC)
Method in brief: as §1

BAZ2B = tested on: BAZ2B
Method in brief: as §1

KDM7A = tested on: KDM7A
Method in brief: as §1

PHF23 = tested on: PHF23
Method in brief: as §1

PHF2 = tested on: PHF2
Method in brief: as §1

PHRF1 (RP) = tested on: PHRF1 (RP)
Method in brief: as §1

KDM5A (1) = tested on: KDM5A (1)
Method in brief: as §1

CHD4 (PPCC) = tested on: CHD4 (PPCC)
Method in brief: as §1

ING2 = tested on: ING2
Method in brief: as §1

RAG2 = tested on: RAG2
Method in brief: as §1

ING5 = tested on: ING5
Method in brief: as §1

MLL5 = tested on: MLL5
Method in brief: as §1

DPF2 (PPC2W2) = tested on: DPF2 (PPC2W2)
Method in brief: as §1

SP140L = tested on: SP140L
Method in brief: as §1

[1] = sheet "Array Heatmap", GST-tagged reader, histone peptide array, total n = 4

H3K36me2 (21-44): H3 21-44
Array Heatmap value (peptide array binding signal) (AIRE (PP); AIRE (PP), GST-tagged, arrays performed twice, n of 4): 0.4141 | Array Heatmap value (peptide array binding signal) (ING3; ING3, GST-tagged, arrays performed twice, n of 4): 0.4835 | Array Heatmap value (peptide array binding signal) (PHF21A; PHF21A, GST-tagged, arrays performed twice, n of 4): 0.4543 | Array Heatmap value (peptide array binding signal) (CHD5 (PPCC); CHD5 (PPCC), GST-tagged, arrays performed twice, n of 4): 0.5556 | Array Heatmap value (peptide array binding signal) (ING1; ING1, GST-tagged, arrays performed twice, n of 4): 0.5436 | Array Heatmap value (peptide array binding signal) (KDM5B (3); KDM5B (3), GST-tagged, arrays performed twice, n of 4): 0.4626 | Array Heatmap value (peptide array binding signal) (DIDO1; DIDO1, GST-tagged, arrays performed twice, n of 4): 0.6879 | Array Heatmap value (peptide array binding signal) (TAF3; TAF3, GST-tagged, arrays performed twice, n of 4): 0.2772 | Array Heatmap value (peptide array binding signal) (KDM5B (1); KDM5B (1), GST-tagged, arrays performed twice, n of 4): 0.6467 | Array Heatmap value (peptide array binding signal) (BPTF (PB); BPTF (PB), GST-tagged, arrays performed twice, n of 4): 0.3564 | Array Heatmap value (peptide array binding signal) (KDM5A (3); KDM5A (3), GST-tagged, arrays performed twice, n of 4): 0.4688 | Array Heatmap value (peptide array binding signal) (KDM4C (TTP); KDM4C (TTP), GST-tagged, arrays performed twice, n of 4): 0.482 | Array Heatmap value (peptide array binding signal) (ING4; ING4, GST-tagged, arrays performed twice, n of 4): 0.4701 | Array Heatmap value (peptide array binding signal) (PHF8; PHF8, GST-tagged, arrays performed twice, n of 4): 0.3633 | Array Heatmap value (peptide array binding signal) (PHF13; PHF13, GST-tagged, arrays performed twice, n of 4): 0.6322 | Array Heatmap value (peptide array binding signal) (MORC3 (CW); MORC3 (CW), GST-tagged, arrays performed twice, n of 4): 0.3825 | Array Heatmap value (peptide array binding signal) (TRIM66 (PB); TRIM66 (PB), GST-tagged, arrays performed twice, n of 4): 0.5817 | Array Heatmap value (peptide array binding signal) (CHD5 (PCC); CHD5 (PCC), GST-tagged, arrays performed twice, n of 4): 0.7486 | Array Heatmap value (peptide array binding signal) (BAZ2B; BAZ2B, GST-tagged, arrays performed twice, n of 4): 0.4646 | Array Heatmap value (peptide array binding signal) (KDM7A; KDM7A, GST-tagged, arrays performed twice, n of 4): 0.3485 | Array Heatmap value (peptide array binding signal) (PHF23; PHF23, GST-tagged, arrays performed twice, n of 4): 0.5508 | Array Heatmap value (peptide array binding signal) (PHF2; PHF2, GST-tagged, arrays performed twice, n of 4): 0.5405 | Array Heatmap value (peptide array binding signal) (PHRF1 (RP); PHRF1 (RP), GST-tagged, arrays performed twice, n of 4): 0.4299 | Array Heatmap value (peptide array binding signal) (KDM5A (1); KDM5A (1), GST-tagged, arrays performed twice, n of 4): 0.4698 | Array Heatmap value (peptide array binding signal) (CHD4 (PPCC); CHD4 (PPCC), GST-tagged, arrays performed twice, n of 4): 0.5705 | Array Heatmap value (peptide array binding signal) (ING2; ING2, GST-tagged, arrays performed twice, n of 4): 0.637 | Array Heatmap value (peptide array binding signal) (RAG2; RAG2, GST-tagged, arrays performed twice, n of 4): 0.2578 | Array Heatmap value (peptide array binding signal) (ING5; ING5, GST-tagged, arrays performed twice, n of 4): 0.3689 | Array Heatmap value (peptide array binding signal) (MLL5; MLL5, GST-tagged, arrays performed twice, n of 4): 0.5622 | Array Heatmap value (peptide array binding signal) (DPF2 (PPC2W2); DPF2 (PPC2W2), GST-tagged, arrays performed twice, n of 4): 0.6298 | Array Heatmap value (peptide array binding signal) (SP140L; SP140L, GST-tagged, arrays performed twice, n of 4): 0.3575

H3R17me2s: H3 1-20 [Peptide H3R17me2s]
Array Heatmap signal, AIRE (PP) (AIRE (PP); [1]): 0.4113 | Array Heatmap signal, ING3 (ING3; [1]): 0.447 | Array Heatmap signal, PHF21A (PHF21A; [1]): 0.4345 | Array Heatmap signal, CHD5 (PPCC) (CHD5 (PPCC); [1]): 0.5108 | Array Heatmap signal, ING1 (ING1; [1]): 0.5076 | Array Heatmap signal, KDM5B (3) (KDM5B (3); [1]): 0.5222 | Array Heatmap signal, DIDO1 (DIDO1; [1]): 0.6492 | Array Heatmap signal, TAF3 (TAF3; [1]): 0.274 | Array Heatmap signal, KDM5B (1) (KDM5B (1); [1]): 0.601 | Array Heatmap signal, BPTF (PB) (BPTF (PB); [1]): 0.3293 | Array Heatmap signal, KDM5A (3) (KDM5A (3); [1]): 0.5756 | Array Heatmap signal, KDM4C (TTP) (KDM4C (TTP); [1]): 0.4268 | Array Heatmap signal, ING4 (ING4; [1]): 0.4307 | Array Heatmap signal, PHF8 (PHF8; [1]): 0.3293 | Array Heatmap signal, PHF13 (PHF13; [1]): 0.5969 | Array Heatmap signal, MORC3 (CW) (MORC3 (CW); [1]): 0.5429 | Array Heatmap signal, TRIM66 (PB) (TRIM66 (PB); [1]): 0.6637 | Array Heatmap signal, CHD5 (PCC) (CHD5 (PCC); [1]): 0.7264 | Array Heatmap signal, BAZ2B (BAZ2B; [1]): 0.4477 | Array Heatmap signal, KDM7A (KDM7A; [1]): 0.306 | Array Heatmap signal, PHF23 (PHF23; [1]): 0.5417 | Array Heatmap signal, PHF2 (PHF2; [1]): 0.5815 | Array Heatmap signal, PHRF1 (RP) (PHRF1 (RP); [1]): 0.8026 | Array Heatmap signal, KDM5A (1) (KDM5A (1); [1]): 0.4442 | Array Heatmap signal, CHD4 (PPCC) (CHD4 (PPCC); [1]): 0.5449 | Array Heatmap signal, ING2 (ING2; [1]): 0.6161 | Array Heatmap signal, RAG2 (RAG2; [1]): 0.2456 | Array Heatmap signal, ING5 (ING5; [1]): 0.3275 | Array Heatmap signal, MLL5 (MLL5; [1]): 0.5344 | Array Heatmap signal, DPF2 (PPC2W2) (DPF2 (PPC2W2); [1]): 0.6998 | Array Heatmap signal, SP140L (SP140L; [1]): 0.3428

From publication PMC6979384, “Characterization of the plant homeodomain (PHD) reader family for their histone tail interactions” (Epigenetics & Chromatin, 2020)
